This note sets out measurements from patent US10508120B2, “TYK2 inhibitors and uses thereof” (Nimbus Lakshmi, Inc., priority 2017, dated 2019).

The target of experiment [1] is human TYK2 (JH2domain-pseudokinase) (Homo sapiens (Human), UniProt P29597). The experiment is described as follows: TYK2 JH2 Domain Binding Assay (KINOMEscan). The procedure, abridged: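 Displacement of a DNA-tagged TYK2 JH2 fusion (human, aa G556–D888, HEK293 extract, <0.1 nM) from ligand-coated beads over 1 h at RT; binding buffer PBS/0.05% Tween 20/10 mM DTT/0.1% BSA.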

Experiment [2] addresses Tyk2 kinase domain (DH1) (Homo sapiens (Human), UniProt P29597). The experiment is described as follows: Tyk2 Radioactive Kinase Assay. It counts as biochemical. The settings on record: 10 μM compound; 10 μM ATP; read-out: Tyk2 JH1% Inhibition @ 10 μM. The procedure, abridged:
(§1)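 Values are single-concentration percent inhibition figures. They were obtained with 10 μM compound in a radioactivity-based kinase assay run separately on each enzyme.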

Experiment [3] concerns the target JAK2 kinase domain (JH1) (Homo sapiens (Human), UniProt O60674). The experiment in a line: JAK2 Radioactive Kinase Assay. It counts as biochemical. The settings on record: 10 μM compound; 10 μM ATP; read-out: JAK2 JH1% Inhibition @ 10 μM. The essentials:
as §1

Structures are written as SMILES.

Sequence of human TYK2 (JH2domain-pseudokinase) (P29597 556-888): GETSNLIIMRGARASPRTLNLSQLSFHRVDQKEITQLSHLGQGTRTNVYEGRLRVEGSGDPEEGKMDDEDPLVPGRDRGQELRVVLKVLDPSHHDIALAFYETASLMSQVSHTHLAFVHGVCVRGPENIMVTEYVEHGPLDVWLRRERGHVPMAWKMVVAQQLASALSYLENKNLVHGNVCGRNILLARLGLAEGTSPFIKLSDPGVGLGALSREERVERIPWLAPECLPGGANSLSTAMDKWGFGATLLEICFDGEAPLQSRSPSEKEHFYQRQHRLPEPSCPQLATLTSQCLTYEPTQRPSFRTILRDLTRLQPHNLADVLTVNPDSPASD
Sequence of JAK2 kinase domain (JH1) (O60674 849-1124): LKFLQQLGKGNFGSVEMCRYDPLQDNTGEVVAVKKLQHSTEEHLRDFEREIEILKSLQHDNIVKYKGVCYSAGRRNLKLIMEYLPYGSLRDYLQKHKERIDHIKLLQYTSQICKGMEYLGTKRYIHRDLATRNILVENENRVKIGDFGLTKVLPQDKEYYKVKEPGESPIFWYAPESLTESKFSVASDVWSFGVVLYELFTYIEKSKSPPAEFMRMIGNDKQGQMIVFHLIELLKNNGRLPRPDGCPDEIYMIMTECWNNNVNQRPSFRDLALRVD
Sequence of Tyk2 kinase domain (DH1) (P29597 897-1176): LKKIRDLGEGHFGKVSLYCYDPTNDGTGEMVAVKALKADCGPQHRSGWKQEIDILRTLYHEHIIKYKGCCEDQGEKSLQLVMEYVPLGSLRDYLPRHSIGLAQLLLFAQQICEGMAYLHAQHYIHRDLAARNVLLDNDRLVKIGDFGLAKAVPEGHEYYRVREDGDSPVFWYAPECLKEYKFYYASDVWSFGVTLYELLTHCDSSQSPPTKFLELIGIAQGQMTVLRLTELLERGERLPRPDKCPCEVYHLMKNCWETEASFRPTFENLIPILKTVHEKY

For `CNc1cc(-c2cn(CCN3CCOCC3)c3ncccc23)nc2c(C(=O)N[C@@H]3COC[C@@H]3O)cnn12` [I-855, N-((3R,4R)-4-hydroxytetrahydrofuran-3-yl)-7-(methylamino)-5-(1-(2-morpholinoethyl)-1H-pyrrolo[2,3-b]pyridin-3-yl)pyrazolo[1,5-a]pyrimidine-3-carboxamide], in experiment [1], the Kd (commonly the constant that tells how readily two partners part at equilibrium) was in the range of 1 to 10 nM. Moreover, the inhibition at 10 µM in experiment [2] and in experiment [3] was < 50% in each case.

In turn, `CNc1cc(-c2cn(CCN3CCOCC3)c3ncccc23)nc2c(C(=O)N[C@H]3COC[C@H]3O)cnn12` [I-856, N-((3S,4S)-4-hydroxytetrahydrofuran-3-yl)-7-(methylamino)-5-(1-(2-morpholinoethyl)-1H-pyrrolo[2,3-b]pyridin-3-yl)pyrazolo[1,5-a]pyrimidine-3-carboxamide] returned a Kd in experiment [1] of 0.2 to 1 nM. For the same molecule, the inhibition at 10 µM in experiment [2] and in experiment [3] was < 50% each time.

In the case of `CNc1cc(Nc2cccc3ocnc23)nc2c(C(=O)N[C@H]3CC[C@@H]3O)cnn12` [I-858, 5-(benzo[d]oxazol-4-ylamino)-N-((1S,2S)-2-hydroxycyclobutyl)-7-(methylamino)pyrazolo[1,5-a]pyrimidine-3-carboxamide], the Kd in experiment [1] was < 0.2 nM. In addition, the inhibition at 10 µM in experiment [2] and in experiment [3] was < 50% throughout.

On to `CNc1cc(Nc2cccc(-c3cn(C)nc3F)n2)nc2c(C(=O)NC3CC3)cnn12` [I-859], for which, in experiment [1], the Kd was < 0.2 nM. Also, the inhibition at 10 µM in experiment [2] and in experiment [3] was < 50% in each case.

Regarding `CNc1cc(Nc2cccn([C@H]3C[C@@H]3F)c2=O)nc2c(C(=O)NC3CC3)cnn12` [I-867], the Kd in experiment [1] is < 0.2 nM. Also, the inhibition at 10 µM in experiment [2] and in experiment [3] was < 50% in each case.

Regarding `CNc1cc(Nc2cccn(-c3ncccc3F)c2=O)nc2c(C(=O)NC[C@H](C)CO)cnn12` [I-868], the Kd in experiment [1] was < 0.2 nM. Also, the inhibition at 10 µM in experiment [2] and in experiment [3] was < 50% each time.

Consider `CNc1cc(Nc2cccn(-c3ncccc3F)c2=O)nc2c(C(=O)NC[C@@H](C)CO)cnn12` [I-869], for which the Kd in experiment [1] was < 0.2 nM. The inhibition at 10 µM in experiment [2] and in experiment [3] was < 50% throughout.

In experiment [1], `CNc1cc(Nc2cccn(C3CC4(COC4)C3)c2=O)nc2c(C(=O)N[C@@H]3CC[C@@H]3O)cnn12` [I-871] returned a Kd of 0.2 to 1 nM. The inhibition at 10 µM in experiment [2] and in experiment [3] was < 50% each time.

`CNc1cc(Nc2cccc(N3CC4(CCO4)C3)n2)nc2c(C(=O)N[C@H]3CC[C@H]3O)cnn12` [I-872]: in experiment [1], the Kd is < 0.2 nM. The inhibition at 10 µM in experiment [2] and in experiment [3] was < 50% in each case.

As to `CNc1cc(Nc2cccc(N3CC4(CCO4)C3)n2)nc2c(C(=O)N[C@@H]3CC[C@@H]3O)cnn12` [I-873], the Kd in experiment [1] was 1 to 10 nM. In addition, the inhibition at 10 µM in experiment [2] and in experiment [3] was < 50% throughout.

Turning to `CNc1cc(-c2cn(CCN3CCCCC3)c3ncccc23)nc2c(C(=O)N[C@@H]3CC[C@@H]3O)cnn12` [I-874], the Kd in experiment [1] fell in the range of 1 to 10 nM. In addition, the inhibition at 10 µM in experiment [2] and in experiment [3] was < 50% each time.

`CNc1cc(-c2cn(CCN3CCCCC3)c3ncccc23)nc2c(C(=O)N[C@H]3CC[C@H]3O)cnn12` [I-875]: the Kd in experiment [1] was < 0.2 nM. In addition, the inhibition at 10 µM in experiment [2] and in experiment [3] was < 50% in each case.

The molecule `CNc1cc(Nc2cccn([C@@H]3CCCC[C@@H]3O)c2=O)nc2c(C(=O)NC3CC3)cnn12` [I-879] showed a Kd in experiment [1] of 1 to 10 nM. Moreover, the inhibition at 10 µM in experiment [2] and in experiment [3] was < 50% throughout.

Regarding `CNc1cc(Nc2cccn([C@H]3CCCN(CCF)C3)c2=O)nc2c(C(=O)NC3CC3)cnn12` [I-880], in experiment [1], the Kd was < 0.2 nM. The inhibition at 10 µM in experiment [2] and in experiment [3] was < 50% in each case.

As for `CNc1cc(Nc2cccn([C@@H]3CCCN(CCF)C3)c2=O)nc2c(C(=O)NC3CC3)cnn12` [I-881], the Kd in experiment [1] lay within 0.2 to 1 nM. Also, the inhibition at 10 µM in experiment [2] and in experiment [3] was < 50% each time.

Turning to `CNc1cc(Nc2cccn([C@H]3CCC[C@H](OC)C3)c2=O)nc2c(C(=O)N[C@@H]3C[C@@H]3F)cnn12` [I-882], in experiment [1], the Kd was < 0.2 nM. The inhibition at 10 µM in experiment [2] and in experiment [3] was < 50% throughout.

Take `CNc1cc(Nc2cccn([C@@H]3CCCC[C@@H]3O)c2=O)nc2c(C(=O)N[C@@H]3C[C@@H]3F)cnn12` [I-889]: the Kd in experiment [1] was 1 to 10 nM. Moreover, the inhibition at 10 µM in experiment [2] and in experiment [3] was < 50% each time.

On to `CNc1cc(Nc2cccn(C(C)C)c2=O)nc2c(C(=O)N[C@H]3CC[C@H]3O)cnn12` [I-894], for which, in experiment [1], the Kd is < 0.2 nM. Moreover, the inhibition at 10 µM in experiment [2] and in experiment [3] was < 50% each time.

`CNc1cc(Nc2cccn(C3CCN(CCF)CC3)c2=O)nc2c(C(=O)N[C@@H]3CC[C@@H]3O)cnn12` [I-897]: the Kd in experiment [1] lay in the range of 0.2 to 1 nM. Moreover, the inhibition at 10 µM in experiment [2] and in experiment [3] was < 50% in each case.

As for `CNc1cc(Nc2cccn(C3CCN(CCF)CC3)c2=O)nc2c(C(=O)N[C@H]3CC[C@@H]3O)cnn12` [I-899], the Kd in experiment [1] is < 0.2 nM. Also, the inhibition at 10 µM in experiment [2] and in experiment [3] was < 50% in each case.

Regarding `CNc1cc(Nc2cccn([C@@H]3CCCN(CCF)C3)c2=O)nc2c(C(=O)N[C@@H]3C[C@@H]3F)cnn12` [I-901], the Kd in experiment [1] is 0.2 to 1 nM. In addition, the inhibition at 10 µM in experiment [2] and in experiment [3] was < 50% throughout.

Molecule `CNc1cc(-c2cn(CCN3CCN(C)CC3)c3ncccc23)nc2c(C(=O)N[C@@H]3CC[C@@H]3O)cnn12` [I-907, N-((1R,2S)-2-hydroxycyclobutyl)-7-(methylamino)-5-(1-(2-(4-methylpiperazin-1-yl)ethyl)-1H-pyrrolo[2,3-b]pyridin-3-yl)pyrazolo[1,5-a]pyrimidine-3-carboxamide] displayed a Kd in experiment [1] of 0.2 to 1 nM. Also, the inhibition at 10 µM in experiment [2] and in experiment [3] was < 50% throughout.

In the case of `CNc1cc(Nc2cccn([C@H]3CC[C@@]4(CCCO4)CC3)c2=O)nc2c(C(=O)NC3CC3)cnn12` [I-910], the Kd in experiment [1] was < 0.2 nM. Moreover, the inhibition at 10 µM in experiment [2] and in experiment [3] was < 50% each time.

With `CNc1cc(Nc2cccn(C3CCCN(CCC#N)C3)c2=O)nc2c(C(=O)N[C@@H]3C[C@@H]3F)cnn12` (stereo partly drawn) [I-912], the Kd in experiment [1] was 0.2 to 1 nM. Besides, the inhibition at 10 µM in experiment [2] and in experiment [3] was < 50% in each case.

Take `CNC(=O)c1nscc1Nc1cc(NC)n2ncc(C(=O)NC3CC3)c2n1` [I-913]: the Kd in experiment [1] was 0.2 to 1 nM. In addition, the inhibition at 10 µM in experiment [2] and in experiment [3] was < 50% each time.

Turning to `CNc1cc(Nc2cccn([C@@H]3CCCC[C@@H]3OC)c2=O)nc2c(C(=O)N[C@@H]3C[C@@H]3F)cnn12` [I-915], the Kd in experiment [1] was 1 to 10 nM. Besides, the inhibition at 10 µM in experiment [2] and in experiment [3] was < 50% in each case.

In turn, `CNc1cc(-c2cn(CCN3CCN(C)CC3)c3ncccc23)nc2c(C(=O)N[C@@H]3CC[C@H]3O)cnn12` [I-921, N-((1R,2R)-2-hydroxycyclobutyl)-7-(methylamino)-5-(1-(2-(4-methylpiperazin-1-yl)ethyl)-1H-pyrrolo[2,3-b]pyridin-3-yl)pyrazolo[1,5-a]pyrimidine-3-carboxamide] came in with a Kd in experiment [1] of 0.2 to 1 nM. Moreover, the inhibition at 10 µM in experiment [2] and in experiment [3] was < 50% throughout.

For `CNc1cc(Nc2cccn([C@H]3CCC[C@@H](OC)C3)c2=O)nc2c(C(=O)NCC3(CO)CC3)cnn12` [I-928], the Kd in experiment [1] lay in the range of 0.2 to 1 nM. Further, the inhibition at 10 µM in experiment [2] and in experiment [3] was < 50% in each case.

With `CNc1cc(Nc2cccn([C@@H]3CCC[C@H](OC)C3)c2=O)nc2c(C(=O)NCC3(CO)CC3)cnn12` [I-929], the Kd in experiment [1] was < 0.2 nM. Also, the inhibition at 10 µM in experiment [2] and in experiment [3] was < 50% each time.

In the case of `CNc1cc(Nc2cc(Cl)cn(C3CCN(C)CC3)c2=O)nc2c(C(=O)N[C@H]3CC[C@@H]3O)cnn12` [I-931], the Kd in experiment [1] is < 0.2 nM. The inhibition at 10 µM in experiment [2] and in experiment [3] was < 50% throughout.

The molecule `CNc1cc(Nc2cccn([C@H]3CCN(CCF)C3)c2=O)nc2c(C(=O)NC3CC3)cnn12` [I-932] had a Kd in experiment [1] of 0.2 to 1 nM. Further, the inhibition at 10 µM in experiment [2] and in experiment [3] was < 50% throughout.

On to `CNc1cc(Nc2cccn([C@@H]3CCN(CCF)C3)c2=O)nc2c(C(=O)NC3CC3)cnn12` [I-933], for which the Kd in experiment [1] is < 0.2 nM. Besides, the inhibition at 10 µM in experiment [2] and in experiment [3] was < 50% throughout.

For `CNc1cc(Nc2cccn([C@H]3CCN(CCF)C3)c2=O)nc2c(C(=O)N[C@@H]3C[C@@H]3F)cnn12` [I-934], in experiment [1], the Kd is < 0.2 nM. The inhibition at 10 µM in experiment [2] and in experiment [3] was < 50% each time.

Consider `CNc1cc(Nc2cccn([C@@H]3CCN(CCF)C3)c2=O)nc2c(C(=O)N[C@@H]3C[C@@H]3F)cnn12` [I-935], for which the Kd in experiment [1] was < 0.2 nM. For the same molecule, the inhibition at 10 µM in experiment [2] and in experiment [3] was < 50% throughout.

For the molecule `CNc1cc(Nc2cccn(-c3oc(C)nc3C)c2=O)nc2c(C(=O)NC3CC3)cnn12` [I-937], the Kd in experiment [1] is 1 to 10 nM. Besides, the inhibition at 10 µM in experiment [2] and in experiment [3] was < 50% in each case.

For `CNc1cc(Nc2cccn(-c3oc(C)nc3C)c2=O)nc2c(C(=O)N[C@@H]3C[C@@H]3F)cnn12` [I-938], in experiment [1], the Kd lay in the range of 0.2 to 1 nM. Also, the inhibition at 10 µM in experiment [2] and in experiment [3] was < 50% each time.
